The target of one experiment is Pim1 kinase (Homo sapiens (Human), UniProt P11309). The experiment can be described thus: Pim1 ATP depletion assay. It is filed as biochemical. Particulars: 20 μM ATP, 40 μM BAD peptide, 2.5 nM PIM1. The protocol:
(§1) The activity of PIM1 is measured using a luciferase-luciferin based ATP detection reagent to quantify ATP depletion resulting from kinase-catalyzed phosphoryl transfer to a peptide substrate. Compounds to be tested are dissolved in 100% DMSO and directly distributed into white 384-well plates at 0.5 μl per well. […] After 15 minutes, 10 μl of 40 μM ATP in assay buffer is added. Final assay concentrations are 2.5 nM PIM1, 20 μM ATP, 40 μM BAD peptide and 2.5% DMSO. The reaction is performed until approximately 50% of the ATP is depleted, then stopped with the addition of 20 μl KinaseGlo Plus (Promega Corporation) solution. The stopped reaction is incubated for 10 minutes and the remaining ATP detected via luminescence on the Victor2 (Perkin Elmer).

The next experiment deals with Pim2 kinase (Homo sapiens (Human), UniProt Q9P1W9). The experiment is described as follows: Pim2 ATP depletion assay. It is filed as biochemical. Particulars: 4 μM ATP, 10 μM BAD peptide, 5 nM PIM2. The protocol:
as §1, with “of PIM2” for “of PIM1”, “0.5 piper” for “0.5 μl per”, “of 8” for “of 40”, “are 5” for “are 2.5”, “nM PIM2, 4” for “nM PIM1, 20”, “ATP, 10” for “ATP, 40”

The target in another experiment is Pim3 kinase (Homo sapiens (Human), UniProt Q86V86). The experiment can be described thus: Pim3 ATP depletion assay. It is filed as biochemical. The note with it: 40 μM ATP, 100 μM BAD peptide. As for the experimental part:
The activity of PIM3 is measured using a luciferase-luciferin based ATP detection reagent to quantify ATP depletion resulting from kinase-catalyzed phosphoryl transfer to a peptide substrate. Compounds to be tested are dissolved in 100% DMSO and directly distributed into white 384-well plates at 0.5 piper well. […] After 15 minutes, 10 μl of 80 μM ATP in assay buffer is added. Final assay concentrations are 5 nM PIM1, 40 μM ATP, 100 μM BAD peptide and 2.5% DMSO. The reaction is performed until approximately 50% of the ATP is depleted, then stopped by the addition of 20 μl KinaseGlo Plus (Promega Corporation) solution. The stopped reaction is incubated for 10 minutes and the remaining ATP detected via luminescence on the Victor2 (Perkin Elmer).

In experiment [1] the test system is KMS11 (human myeloma cell line). The experiment can be described thus: Cell Proliferation Assay. It is filed as cell-based. The note with it: KMS-11, 72 h, KMS11 cells, 3 days, Cell Titer-Glow. The protocol: KMS11 (human myeloma cell line), were cultured in IMDM supplemented with 10% FBS, sodium pyruvate and antibiotics. Cells were plated in the same medium at a density of 2000 cells per well into 96 well tissue culture plates, with outside wells vacant, on the day of assay. MM1.s (human myeloma cell line), were cultured in RPMI1640 supplemented with 10% FBS, sodium pyruvate and antibiotics. Cells were plated in the same medium at a density of 5000 cells per well into 96 well tissue culture plates, with outside wells vacant, on the day of assay.
Test compounds supplied in DMSO were diluted into DMSO at 500 times the desired final concentrations before dilution into culture media to 2 times final concentrations. Equal volumes of 2× compounds were added to the cells in 96 well plates and incubated at 37° C. for 3 days.
After 3 days plates were equilibrated to room temperature and equal volume of Cell Titer-Glow Reagent (Promega) was added to the culture wells. The plates were agitated briefly and luminescent signal was measured with luminometer.
Using the procedures for Cell Proliferation Assay described above, the EC50 concentration of compounds of the previous examples were determined in KMS11 cells as shown in the following table.

Molecules are shown by their SMILES. Some results are limits rather than exact numbers.

Pim1 kinase, sequence (P11309 whole entry): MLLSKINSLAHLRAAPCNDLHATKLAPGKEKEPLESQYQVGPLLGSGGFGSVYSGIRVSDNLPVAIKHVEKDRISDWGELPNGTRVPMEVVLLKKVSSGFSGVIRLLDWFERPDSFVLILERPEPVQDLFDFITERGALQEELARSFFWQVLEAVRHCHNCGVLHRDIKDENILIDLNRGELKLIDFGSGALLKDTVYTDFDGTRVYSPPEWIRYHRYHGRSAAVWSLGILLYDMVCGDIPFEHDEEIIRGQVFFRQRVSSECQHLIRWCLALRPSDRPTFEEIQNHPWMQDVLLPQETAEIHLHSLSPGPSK
Pim2 kinase, sequence (Q9P1W9 whole entry): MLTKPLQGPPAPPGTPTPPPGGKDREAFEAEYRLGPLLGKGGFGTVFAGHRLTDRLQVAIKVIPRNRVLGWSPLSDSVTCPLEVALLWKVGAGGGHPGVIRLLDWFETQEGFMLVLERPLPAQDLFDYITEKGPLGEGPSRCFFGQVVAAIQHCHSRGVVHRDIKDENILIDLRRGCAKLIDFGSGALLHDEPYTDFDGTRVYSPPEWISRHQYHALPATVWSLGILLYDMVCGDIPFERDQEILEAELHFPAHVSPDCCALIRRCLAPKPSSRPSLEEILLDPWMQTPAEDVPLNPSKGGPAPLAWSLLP

For `N[C@@H]1CN(c2ccncc2NC(=O)c2csc(-c3c(F)cccc3F)n2)CC[C@@H]1O` [Example 6, N-(4-((3R,4S)-3-amino-4-hydroxypiperidin-1-yl)pyridin-3-yl)-2-(2,6-difluorophenyl)thiazole-4-carboxamide], the half-maximal inhibitory concentration (IC50) against Pim1 kinase was found to be 1 nM; on Pim2 kinase, 3 nM; at Pim3 kinase, 1 nM. The compound also had a half-maximal effective concentration (EC50) in experiment [1] of 410 nM.

For `CO[C@@H]1C[C@H](N)CN(c2ccncc2NC(=O)c2csc(-c3c(F)cccc3F)n2)C1` [Example 8, N-(4-((3S,5R)-3-amino-5-methoxypiperidin-1-yl)pyridin-3-yl)-2-(2,6-difluorophenyl)thiazole-4-carboxamide], the results for the IC50 at Pim1 kinase, at Pim2 kinase and against Pim3 kinase were 21 nM, 46 nM and 35 nM, respectively. Moreover, the EC50 in experiment [1] is 4700 nM.

In the case of `N[C@H]1C[C@@H](F)CN(c2ccncc2NC(=O)c2csc(-c3c(F)cccc3F)n2)C1` [Example 11, N-(4-((3S,5R)-3-amino-5-fluoropiperidin-1-yl)pyridin-3-yl)-2-(2,6-difluorophenyl)thiazole-4-carboxamide], the results for the IC50 against Pim1 kinase, against Pim2 kinase and against Pim3 kinase were 4 nM, 55 nM and 8 nM, respectively. The compound also showed an EC50 in experiment [1] of 6100 nM.

Consider `NC1CC(C(F)(F)F)CN(c2ccncc2NC(=O)c2csc(-c3c(F)cccc3F)n2)C1` (stereo not shown) [Example 15, N-(4-(3-amino-5-(trifluoromethyl)piperidin-1-yl)pyridin-3-yl)-2-(2,6-difluorophenyl)thiazole-4-carboxamide], for which the results for the IC50 against Pim1 kinase, against Pim2 kinase and against Pim3 kinase were 1 nM, 3 nM and 4 nM, respectively. The compound further displayed an EC50 in experiment [1] of 310 nM.

As for `NC1CC(CF)CN(c2ccncc2NC(=O)c2csc(-c3c(F)cccc3F)n2)C1` (stereo not shown) [Example 16, N-(4-(3-amino-5-(fluoromethyl)piperidin-1-yl)pyridin-3-yl)-2-(2,6-difluorophenyl)thiazole-4-carboxamide], the IC50 came out at 1 nM at Pim1 kinase, 3 nM on Pim2 kinase and 4 nM against Pim3 kinase. The same compound returned an EC50 in experiment [1] of 2380 nM.

For `CC1CCN(c2ccncc2NC(=O)c2csc(-c3c(F)cccc3F)n2)CC1N` (stereo not shown) [Example 19, N-(4-(3-amino-4-methylpiperidin-1-yl)pyridin-3-yl)-2-(2,6-difluorophenyl)thiazole-4-carboxamide], the figures for the IC50 on Pim1 kinase, at Pim2 kinase and against Pim3 kinase were 1 nM, 8 nM and 5 nM, respectively. In addition, a half-maximal effect in experiment [1] (EC50) was put at 930 nM.

For `CCO[C@@H]1C[C@H](N)CN(c2ccncc2NC(=O)c2csc(-c3c(F)cccc3F)n2)C1` [Example 23, N-(4-((3S,5R)-3-amino-5-ethoxypiperidin-1-yl)pyridin-3-yl)-2-(2,6-difluorophenyl)thiazole-4-carboxamide], the IC50 on Pim1 kinase worked out at 56 nM; on Pim2 kinase it was 85 nM; on Pim3 kinase, 86 nM. The compound further showed an EC50 in experiment [1] of 6540 nM.

Turning to `N[C@H]1C[C@@H](C(F)(F)F)CN(c2ccncc2NC(=O)c2csc(-c3c(F)cccc3F)n2)C1` [Example 27, N-(4-((3S,5R)-3-amino-5-(trifluoromethyl)piperidin-1-yl)pyridin-3-yl)-2-(2,6-difluorophenyl)thiazole-4-carboxamide], the half-inhibitory concentration (IC50) against Pim1 kinase is 1 nM; on Pim2 kinase it was 3 nM; at Pim3 kinase, 3 nM. The compound also yielded an EC50 in experiment [1] of 460 nM.

Regarding `C[C@H]1CN(c2ccncc2NC(=O)c2csc(-c3c(F)cccc3F)n2)C[C@@H](N)[C@@H]1O` [Example 36, N-(4-((3R,4R,5S)-3-amino-4-hydroxy-5-methylpiperidin-1-yl)pyridin-3-yl)-2-(2,6-difluorophenyl)thiazole-4-carboxamide], the IC50 on Pim1 kinase was determined as 1 nM; against Pim2 kinase, 3 nM; at Pim3 kinase, 3 nM. This compound also had an EC50 in experiment [1] of 560 nM.

For `C[C@H]1C[C@@H](c2ccncc2NC(=O)c2csc(-c3c(F)cccc3F)n2)C[C@@H](N)[C@@H]1O` [Example 41, N-(4-((1R,3R,4R,5S)-3-amino-4-hydroxy-5-methylcyclohexyl)pyridin-3-yl)-2-(2,6-difluorophenyl)thiazole-4-carboxamide (and enantiomer)], the IC50 against Pim1 kinase stood at 4 nM; on Pim2 kinase it was 27 nM; on Pim3 kinase, 8 nM. This compound yielded an EC50 in experiment [1] greater than 10000 nM.

The term IC50 denotes the point on the concentration scale where inhibition reaches its midpoint. Low readings indicate inhibition by little substance, high ones a need for much substance. As usually defined, the EC50 is the concentration that produces a half-maximal response.

These data come from US8829193B2, “PIM kinase inhibitors and methods of their use” (Novartis AG, priority 2008, dated 2014).
